Reference: patent US20250034147A1, “MDM2 DEGRADERS AND USES THEREOF” (Kymera Therapeutics, Inc., priority 2021, published 2025)

What was measured:
HiBiT-tagged MDM2 = target: T1, HiBiT-tagged MDM2 (Homo sapiens, UniProt Q00987); experiment: MDM2 HiBit HEK293T degradation; assay type: cell-based; details: HEK293T cells stably expressing C-terminally HiBiT-tagged MDM2; 4 h; read-out: MDM2 HiBit HEK293T degradation 4 h: Average external-Abs DC50
T1 construct: expressed in transfected cells
Experimental: HEK293T cells were grown overnight to 70-80% confluency in a 6-well plate in complete media (DMEM 10% FBS) in a 37° C. incubator with 5% CO2. Cells were transfected with 1 micrograms of C- or N-terminally HiBiT-tagged MDM2 constructs using Fugene 6 transfection reagent (Promega) as per manufacturer protocol. After overnight incubation at 37° C., growth media within the wells was replaced with selection media (DMEM+10% FBS+1 microgram/ml final concentration of Puromycin). Puromycin (selection antibiotic) concentrations required for complete cell kill were determined previously. Cells were monitored for the next 48h-96h to select for positively transfected cells. Surviving colonies were pooled and expanded in selection media. Expanded pools of HEK293T cells stably expressing C- and N-terminally HiBiT-tagged MDM2, were characterized using a MDM2 tool degrader and HaloPROTAC3 as positive control. HEK293T cells expressing C-terminally HiBiT-tagged MDM2 were subsequently used for assessment of degradation potencies for MDM2 degraders.
The letter codes for MDM2 degradation potency (DC50) include: A (<10 nM), B […], C (>100-1000 nM), and D (>1000 nM).

RS411 cells = experiment: Cell Viability CTG Assay; assay type: cell-based; details: Homo sapiens, RS4-11, CellTiter Glo (CTG) cell viability, read-out: Average external-IC50
Experimental: Compounds or DMSO 60 nL were stamped to the cell plate as the platemap. RS411 cells were centrifuged at 800 rpm for 5 min, suspended with culture medium, and counted with Countess (Invitrogen). The cell density was adjusted to the recommend information. 30 μL of cell solution (1000 cells/well) was added to the assay plate as the platemap and 30 μL of media was added to column 2 and column 23 as the platemap. The plate was spun down briefly. The final concentration of the compounds started at 10 μM (3 fold dilution and 11 doses) and final DMSO concentration was 0.2%. The plate was spun down briefly and incubated at 37° C., 5% CO2 for 1 day. […] 30 μL CellTiter Glo reagent was added to each well and the plate was centrifuged at 1000 rpm for 30 sec. The plate was shaken for 1 min and centrifuged at 1000 rpm for 30 sec. The plate was incubated at RT for 10 min to stabilize the luminescent signal and the luminescence was read by EnVision.
The letter codes for IC50 indicate the concentration of compound required to affect 50% of cells: A (<0.005 μM), B (0.005-0.05 μM), C (0.05-0.5 μM), and D (>0.5 μM).

T1 sequence (Q00987 whole entry): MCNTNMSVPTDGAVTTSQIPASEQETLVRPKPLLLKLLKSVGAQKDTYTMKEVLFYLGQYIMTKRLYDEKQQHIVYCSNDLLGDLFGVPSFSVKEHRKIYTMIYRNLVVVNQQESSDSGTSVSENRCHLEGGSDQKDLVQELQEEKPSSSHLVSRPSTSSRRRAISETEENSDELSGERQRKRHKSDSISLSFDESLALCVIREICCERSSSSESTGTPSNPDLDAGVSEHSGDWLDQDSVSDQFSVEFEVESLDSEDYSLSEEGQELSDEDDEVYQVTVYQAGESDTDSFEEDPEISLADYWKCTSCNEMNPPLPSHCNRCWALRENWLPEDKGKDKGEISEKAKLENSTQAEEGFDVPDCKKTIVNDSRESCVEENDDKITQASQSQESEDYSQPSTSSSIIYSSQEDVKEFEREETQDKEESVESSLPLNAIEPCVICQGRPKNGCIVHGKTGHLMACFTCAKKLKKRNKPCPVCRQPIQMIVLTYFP

| SMILES | DC50 (HiBiT-tagged MDM2) [nM] | IC50 (RS411 cells) [nM] |
| --- | --- | --- |
| COc1cc2c(cc1OC(C)C)[C@H](c1ccc(Cl)cc1)N(c1ccc(N(C)C[C@H]3CC[C@H](N(CCS(C)(=O)=O)C(=O)CCCCc4ccc5c(c4)n(C)c(=O)n5C4CCC(=O)NC4=O)CC3)cc1)C(=O)C2 (stereo partly shown) [I-6] | 10 to 100 | < 5 |
| Cn1c(=O)n(C2CCC(=O)NC2=O)c2ccc(CCN3CCN(CCCN4CCC(NC(=O)[C@@H]5NC6(CCC(C)(C)CC6)[C@@]6(C(=O)Nc7cc(Cl)ccc76)[C@H]5c5ccnc(Cl)c5F)CC4)CC3)cc21 (stereo partly shown) [I-20] | < 10 | < 5 |
| Cn1c(=O)n(C2CCC(=O)NC2=O)c2ccc(C#CC3CCN(C(=O)[C@@H]4CC[C@@H](NC(=O)[C@@H]5NC6(CCC(C)(C)CC6)[C@@]6(C(=O)Nc7cc(Cl)ccc76)[C@H]5c5cccc(Cl)c5F)CO4)CC3)cc21 (stereo partly shown) [I-36] |  | < 5 |
| Cn1c(=O)n(C2CCC(=O)NC2=O)c2ccc(C3(C(=O)O)CCN(C(=O)[C@H]4CC[C@H](NC(=O)[C@@H]5NC6(CCCCC6)C6(C(=O)Nc7cc(Cl)ccc76)[C@H]5c5cccc(Cl)c5F)CC4)CC3)cc21 (stereo partly drawn) [I-84, 1-((1R,4r)-4-((3′R,4′S,5′R)-6″-chloro-4′-(3-chloro-2-fluorophenyl)-2″-oxodispiro[cyclohexane-1,2′-pyrrolidine-3′,3″-indoline]-5′-carboxamido)cyclohexane-1-carbonyl)-4-(1-(2,6-dioxopiperidin-3-yl)-3-methyl-2-oxo-2,3-dihydro-1H-benzo[d]imidazol-5-yl)piperidine-4-carboxylic acid] |  | 50 to 500 |
| Cn1c(=O)n(C2CCC(=O)NC2=O)c2ccc(CCCS(=O)(=O)NC(=O)[C@H]3CC[C@H](NC(=O)[C@@H]4NC5(CCCCC5)[C@@]5(C(=O)Nc6cc(Cl)ccc65)[C@H]4c4cccc(Cl)c4F)CC3)cc21 (stereo partly shown) [I-100] |  | 50 to 500 |
| CN1C(=O)CCC(n2c(=O)n(C)c3cc(C4CCN(C[C@H]5CC[C@H](NC(=O)[C@@H]6NC7(CCCCC7)[C@@]7(C(=O)Nc8cc(Cl)ccc87)[C@H]6c6cccc(Cl)c6F)CC5)CC4)ccc32)C1=O (stereo partly shown) [I-101] |  | 5 to 50 |
| COC(=O)C1(c2ccc3c(c2)n(C)c(=O)n3C2CCC(=O)NC2=O)CCN(C(=O)[C@H]2CC[C@H](NC(=O)[C@@H]3NC4(CCCCC4)[C@@]4(C(=O)Nc5cc(Cl)ccc54)[C@H]3c3cccc(Cl)c3F)CC2)CC1 (stereo partly drawn) [I-102, methyl 1-((1R,4r)-4-((3′R,4′S,5′R)-6″-chloro-4′-(3-chloro-2-fluorophenyl)-2″-oxodispiro[cyclohexane-1,2′-pyrrolidine-3′,3″-indoline]-5′-carboxamido)cyclohexane-1-carbonyl)-4-(1-(2,6-dioxopiperidin-3-yl)-3-methyl-2-oxo-2,3-dihydro-1H-benzo[d]imidazol-5-yl)piperidine-4-carboxylate] |  | < 5 |
| O=C(O)Cn1c(=O)n(C2CCC(=O)NC2=O)c2ccc(C3CCN(C[C@H]4CC[C@H](NC(=O)[C@@H]5NC6(CCCCC6)[C@@]6(C(=O)Nc7cc(Cl)ccc76)[C@H]5c5cccc(Cl)c5F)CC4)CC3)cc21 (stereo partly shown) [I-206] | 10 to 100 |  |
| Cn1c(=O)n(C2CCC(=O)NC2=O)c2ccc(CCCN3CCN(C[C@H]4CC[C@H](NC(=O)[C@@H]5NC6(CCC(C)(C)CC6)[C@@]6(C(=O)Nc7cc(Cl)ccc76)[C@H]5c5ccnc(Cl)c5F)CC4)[C@@H](C(=O)O)C3)cc21 (stereo partly shown) [I-223] | < 10 |  |
| Cn1c(=O)n(C2CCC(=O)NC2=O)c2ccc(CN3CCN(C(=O)[C@H]4CC[C@H](NC(=O)[C@@H]5NC6(CCCCC6)[C@@]6(C(=O)Nc7cc(Cl)ccc76)[C@H]5c5cccc(Cl)c5F)CC4)C(C(=O)O)C3)cc21 (stereo partly shown) [I-135] | 100 to 1000 |  |
| Cn1c(=O)n(C2CCC(=O)NC2=O)c2ccc(CCCN3CCN(C[C@H]4CC[C@H](NC(=O)[C@@H]5NC6(CCCCC6)[C@@]6(C(=O)Nc7cc(Cl)ccc76)[C@H]5c5cccc(Cl)c5F)CC4)C(P(=O)(O)O)C3)cc21 (stereo partly shown) [I-235] | 10 to 100 |  |
| O=C1CCN(c2ccc(CCCCN3CCN(C(=O)[C@H]4CC[C@H](NC(=O)[C@@H]5NC6(CCCCC6)[C@@]6(C(=O)Nc7cc(Cl)ccc76)[C@H]5c5cccc(Cl)c5F)CC4)CC3)cc2)C(=O)N1 [I-156] | > 1000 |  |
| Cn1c(=O)n(C2CCC(=O)NC2=O)c2ccc(C3CCN(C[C@H]4CC[C@H](NC(=O)[C@@H]5NC6(CCCCC6)[C@@]6(C(=O)Nc7cc(Cl)ccc76)[C@H]5c5cccc(Cl)c5F)CC4)C(C(=O)O)C3)cc21 (stereo partly shown) [I-168] | 10 to 100 |  |
| Cn1c(=O)n(C2CCC(=O)NC2=O)c2ccc(O[C@@H]3C[C@@H](C(=O)O)N(C(=O)[C@H]4CC[C@H](NC(=O)[C@@H]5NC6(CCCCC6)[C@@]6(C(=O)Nc7cc(Cl)ccc76)[C@H]5c5cccc(Cl)c5F)CC4)C3)cc21 (stereo partly shown) [I-143] | 10 to 100 |  |
| Cn1c(=O)n(C2CCC(=O)NC2=O)c2ccc(-c3ccc(CCN4CCC(NC(=O)[C@@H]5NC6(CCCCC6)[C@@]6(C(=O)Nc7cc(Cl)ccc76)[C@H]5c5cccc(Cl)c5F)CC4)cc3)cc21 (stereo partly shown) [I-154] | < 10 |  |
| Cn1c(=O)n(C2CCC(=O)NC2=O)c2ccc(CCN3CCN(CCN4CCC(NC(=O)[C@@H]5NC6(CCCCC6)[C@@]6(C(=O)Nc7cc(Cl)ccc76)[C@H]5c5cccc(Cl)c5F)CC4)CC3)cc21 (stereo partly shown) [I-151] | < 10 |  |
| Cn1c(=O)n(C2CCC(=O)NC2=O)c2ccc(C3CC4(C3)CN(C[C@H]3CC[C@H](NC(=O)[C@@H]5NC6(CCCCC6)[C@@]6(C(=O)Nc7cc(Cl)ccc76)[C@H]5c5cccc(Cl)c5F)CC3)C4)cc21 (stereo partly shown) [I-123] | < 10 |  |
| Cn1c(=O)n(C2CCC(=O)NC2=O)c2ccc(CCCCN3CCN(C[C@H]4CC[C@H](NC(=O)[C@@H]5NC6(CCCCC6)[C@@]6(C(=O)Nc7cc(Cl)ccc76)[C@H]5c5cccc(Cl)c5F)CC4)[C@H](C(=O)O)C3)cc21 (stereo partly shown) [I-213] | < 10 |  |
| Cn1c(=O)n(C2CCC(=O)NC2=O)c2ccc(CC3(CC(=O)O)CCN(C[C@H]4CC[C@H](NC(=O)[C@@H]5NC6(CCCCC6)[C@@]6(C(=O)Nc7cc(Cl)ccc76)[C@H]5c5cccc(Cl)c5F)CC4)CC3)cc21 (stereo partly shown) [I-210] | 10 to 100 |  |
| Cn1c(=O)n(C2CCC(=O)NC2=O)c2ccc(C3(O)CCN(C[C@H]4CC[C@H](NC(=O)[C@@H]5NC6(CCCCC6)[C@@]6(C(=O)Nc7cc(Cl)ccc76)[C@H]5c5cccc(Cl)c5F)CC4)CC3)cc21 (stereo partly shown) [I-194] | < 10 |  |
| C[C@H]1CN(C(=O)[C@H]2CC[C@H](NC(=O)[C@@H]3NC4(CCCCC4)[C@@]4(C(=O)Nc5cc(Cl)ccc54)[C@H]3c3cccc(Cl)c3F)CC2)CCN1CCc1ccc2c(c1)n(C)c(=O)n2C1CCC(=O)NC1=O (stereo partly shown) [I-121] | < 10 |  |
| COc1cc2c(cc1OC(C)C)[C@H](c1ccc(Cl)cc1)N(c1ccc(N(C)CC3CCN(CCCc4ccc5c(c4)n(C)c(=O)n5C4CCC(=O)NC4=O)C(=O)C3)cc1)C(=O)C2 (stereo partly shown) [I-68] |  | < 5 |
| Cn1c(=O)n(C2CCC(=O)NC2=O)c2ccc(C3CCN(CCC(=O)N4CCC(NC(=O)[C@@H]5NC6(CCCCC6)[C@@]6(C(=O)Nc7cc(Cl)ccc76)[C@H]5c5cccc(Cl)c5F)CC4)CC3)cc21 (stereo partly shown) [I-146] | < 10 |  |
| Cn1c(=O)n(C2CCC(=O)NC2=O)c2ccc([C@H]3CC[C@H](N4CCC(NC(=O)[C@@H]5NC6(CCCCC6)[C@@]6(C(=O)Nc7cc(Cl)ccc76)[C@H]5c5cccc(Cl)c5F)CC4)CC3)cc21 (stereo partly shown) [I-138] | < 10 |  |
| Cn1c(=O)n(C2CCC(=O)NC2=O)c2ccc(CN3CCN(CCCN4CCC(NC(=O)[C@@H]5NC6(CCCCC6)[C@@]6(C(=O)Nc7cc(Cl)ccc76)[C@H]5c5cccc(Cl)c5F)CC4)CC3)cc21 (stereo partly shown) [I-147] | 10 to 100 |  |
| Cn1c(=O)n(C2CCC(=O)NC2=O)c2ccc(C3CCN(C(=O)CN4CCC(NC(=O)[C@@H]5NC6(CCC(C)(C)CC6)[C@@]6(C(=O)Nc7cc(Cl)ccc76)[C@H]5c5ccnc(Cl)c5F)CC4)CC3)cc21 (stereo partly shown) [I-160] | < 10 |  |
